Measurements: patent US20170152258A9, “Substituted Pyridopyrazines as Syk Inhibitors” (HUTCHISON MEDIPHARMA LIMITED, priority 2012, published 2017)

Biological target: Syk kinase (Homo sapiens, UniProt P43405)
Assay: SYK Enzymatic Assay (Z-LYTE Tyr 2 peptide)
Type: biochemical
Conditions: 8 concentrations 1 μM down to 0.0003 μM
Description: Syk kinase assay are performed in vitro using Kit-Tyr 2 Peptide (Invitrogen, Cat. No. PV3191) and in a 384-well assay plate. […] The 384-well assay plate (Corning, Cat. No. 3575) is mixed and incubated at room temperature for 1 hour. 10 μL of the Development Solution (prepared by diluting Development Reagent A (Cat. No. PV3297) to 1/32 with Development Buffer (Cat. No. PV3127)) is then added to each well, mixed and incubated at room temperature for another 1 hour. The reactions are then stopped by adding 10 μL of the Stop Reagent (Invitrogen, Cat. No. PV3094), and the plate is read with Wallac 1420 VICTOR^3 Multilabel Counter (PerkinElmer™) at 445 nm and 520 nm fluorescence. All compounds are tested at 8 concentrations (1 μM down to 0.0003 μM) using a 1:3 serial dilution scheme.

SMILES | IC50 [nM]
CN(C)c1ccc(-c2cc3nccnc3c(OC[C@@H]3CN(C(=O)CCc4cccnc4)CCO3)n2)cc1 [Compound 79] | 231
CN(C)c1ccc(-c2cc3nccnc3c(OC3CCOCC3)n2)cc1 [Compound 107] | 919
CN(C)c1ccc(-c2cc3nccnc3c(OC[C@@H]3CN(S(=O)(=O)Cc4cccc(F)c4)CCO3)n2)cc1 [Compound 93] | 808
N#CC1(c2ccc(-c3cc4nccnc4c(OC[C@@H]4CN(C(N)=O)CCO4)n3)cc2)CC1 [Compound 275] | 76
Clc1cc(-c2cc3nccnc3c(O[C@@H]3CCOC3)n2)ccc1N1CCOCC1 [Compound 194] | 136
CN(C)CCOc1cccc(-c2cc3nccnc3c(OC[C@@H]3CN(S(C)(=O)=O)CCO3)n2)c1 [Compound 130] | 454
OC1CCC(Oc2nc(-c3ccc(N4CCOCC4)cc3)cc3nccnc23)CC1 (stereo not shown) [Compound 1, 4-(7-(4-morpholinophenyl)pyrido[4,3-b]pyrazin-5-yloxy)cyclohexanol] | 270
c1cnc2c(OCCc3cn[nH]c3)nc(-c3ccc(N4CCOCC4)cc3)cc2n1 [Compound 2, 4-(4-(5-(2-(1H-pyrazol-4-yl)ethoxy)pyrido[3,4-b]pyrazin-7-yl)phenyl)morpholine] | 552
CC(=O)N1CCO[C@H](COc2nc(-c3ccc(C4(C#N)CC4)cc3)cc3nccnc23)C1 [Compound 276] | 112
CN(C)c1ccc(-c2cc3nccnc3c(O[C@H]3CCOC3)n2)cc1 [Compound 106] | 130
CN(C)c1ccc(-c2cc3nccnc3c(OC[C@@H]3CN(C(=O)CCCC#N)CCO3)n2)cc1 [Compound 81] | 166
CC(=O)N1CCO[C@H](COc2nc(-c3ccc(N4CCNCC4)c(C)c3)cc3nccnc23)C1 [Compound 182] | 110
CN(C)c1ccc(-c2cc3nccnc3c(OC[C@@H]3CN(C(=O)C4CC4(F)F)CCO3)n2)cc1 (stereo partly shown) [Compound 96] | 134
COC(C)c1ccc(-c2cc3nccnc3c(OC[C@@H]3CN(C(C)=O)CCO3)n2)cc1 (stereo partly shown) [Compound 280] | 113
CN1CCN(c2ccc(-c3cc4nccnc4c(OCC4CCC(=O)NC4)n3)cc2)CC1 (stereo not shown) [Compound 5] | 172
CN1C[C@@H](COc2nc(-c3ccc(C(C)(C)O)cc3)cc3nccnc23)OCC1=O [Compound 310] | 588
NC(=O)N1CCO[C@H](COc2nc(-c3ccc4[nH]ncc4c3)cc3nccnc23)C1 [Cmpd 242] | 111
CNC(=O)N1CCO[C@H](COc2nc(-c3ccc4[nH]ncc4c3)cc3nccnc23)C1 [Compound 204] | 126
CC(C)(O)c1ccc(-c2cc3nccnc3c(OCC3OCCNC3=O)n2)cc1 (stereo not shown) [Compound 319] | 208
COc1ccc(-c2cc3nccnc3c(OC[C@@H]3CN(C(C)=O)CCO3)n2)cc1OC [Compound 132] | 109
COCCNc1ccc(-c2cc3nccnc3c(OC[C@@H]3CN(C(C)=O)CCO3)n2)cc1 [Compound 114] | 122
CC(Oc1nc(-c2ccc(N(C)C)cc2)cc2nccnc12)C1CN(S(C)(=O)=O)CCO1 (stereo not shown) [Compound 236] | 109
CC(=O)N1CCO[C@H](COc2nc(-c3ccc(C(O)C(C)C)cc3)cc3nccnc23)C1 (stereo partly shown) [Compound 286] | 403
CC(Oc1nc(-c2ccc(N(C)C)cc2)cc2nccnc12)C1CN(S(C)(=O)=O)CCO1 (stereo not shown) [Compound 240] | 262
CC(=O)N1CCO[C@H](COc2nc(-c3ccc(C(C)(CO)CO)cc3)cc3nccnc23)C1 [Compound 278] | 175
CC(=O)N1CCO[C@H](COc2nc(-c3ccc(C(C)C)cc3)cc3nccnc23)C1 [Compound 160] | 102
CN(C)c1ccc(-c2cc3nccnc3c(OC[C@@H]3CN(C(=O)C4(C#N)CC4)CCO3)n2)cc1 [Compound 97] | 144
CC(=O)N1CCO[C@H](COc2nc(-c3cnc(N(C)C)c(C)c3)cc3nccnc23)C1 [Compound 174] | 816
CC(Oc1nc(-c2ccc(N(C)C)cc2)cc2nccnc12)C1CN(C(N)=O)CCO1 (stereo not shown) [Compound 238] | 275

Continued, values first:

IC50 [nM] | SMILES
192 | C=C(C)c1ccc(-c2cc3nccnc3c(OC[C@@H]3CN(S(C)(=O)=O)CCO3)n2)cc1 [Compound 277, (S)-4-(methylsulfonyl)-2-(((7-(4-(prop-1-en-2-yl)phenyl)pyrido[3,4-b]pyrazin-5-yl)oxy)methyl)morpholine]
182 | CS(=O)(=O)N1CCC(c2ccc(-c3cc4nccnc4c(OCC4CCCO4)n3)cc2)CC1 (stereo not shown) [Compound 170]
119 | CS(=O)(=O)N1CCC(c2ccc(-c3cc4nccnc4c(OCC4OCCNC4=O)n3)cc2)CC1 (stereo not shown) [Compound 320]
139 | CS(=O)(=O)N1CCO[C@H](COc2nc(-c3cnn(C4CCOCC4)c3)cc3nccnc23)C1 [Compound 42]
121 | CN(C)S(=O)(=O)N1CCO[C@H](COc2nc(-c3ccc(N4CCOCC4)cc3)cc3nccnc23)C1 [Compound 56]
40 | CS(=O)(=O)N1CCO[C@H](COc2nc(-c3ccc(N4CCCC4)cc3)cc3nccnc23)C1 [Compound 37]
338 | CS(=O)(=O)N1CCO[C@H](COc2nc(-c3ccc(Cl)cc3)cc3nccnc23)C1 [Compound 40]
405 | CN(C)c1ccc(-c2cc3nccnc3c(OCC3CCCCO3)n2)cc1 (stereo not shown) [Compound 167]
131 | COc1ccc(-c2cc3nccnc3c(OC[C@@H]3CN(S(C)(=O)=O)CCO3)n2)cc1F [Compound 35]
272 | CS(=O)(=O)N1CCC(c2ccc(-c3cc4nccnc4c(OCC4CCCCO4)n3)cc2)CC1 (stereo not shown) [Compound 169]
192 | Cn1cc(-c2cc3nccnc3c(OC[C@@H]3CN(S(C)(=O)=O)CCO3)n2)cn1 [Compound 46]
18 | CS(=O)(=O)N1CCO[C@H](COc2nc(-c3ccc(C4CCNCC4)cc3)cc3nccnc23)C1 [Compound 10, (S)-4-(methylsulfonyl)-2-(((7-(4-(piperidin-4-yl)phenyl)pyrido[3,4-b]pyrazin-5-yl)oxy)methyl)morpholine]
109 | CC(C)c1ccc(-c2cc3nccnc3c(OC[C@@H]3CN(S(N)(=O)=O)CCO3)n2)cc1 [Compound 187]
136 | CC(C)(N)c1ccc(-c2cc3nccnc3c(OC[C@@H]3CN(S(C)(=O)=O)CCO3)n2)cc1 [Compound 244]
127 | CC(=O)N1CCO[C@H](COc2nc(-c3ccc(C4(O)CCC4)cc3)cc3nccnc23)C1 [Compound 309]
122 | CNc1ccc(-c2cc3nccnc3c(OC[C@@H]3CN(C(C)=O)CCO3)n2)cc1 [Compound 47]
138 | Cc1ccc(-c2cc3nccnc3c(OC[C@@H]3CN(S(C)(=O)=O)CCO3)n2)cc1 [Compound 41]
477 | CNS(=O)(=O)CCN1CCO[C@H](COc2nc(-c3ccc(N(C)C)cc3)cc3nccnc23)C1 [Compound 128]
846 | CS(=O)(=O)N1CCO[C@H](COc2nc(-c3ccc(C#N)cc3)cc3nccnc23)C1 [Compound 45]
227 | CS(=O)(=O)N1CCO[C@H](COc2nc(-c3ccc(OC(F)F)cc3)cc3nccnc23)C1 [Compound 34]
104 | CC(=O)NC(C)(C)c1ccc(-c2cc3nccnc3c(OC[C@@H]3CN(S(C)(=O)=O)CCO3)n2)cc1 [Compound 313]
177 | CS(=O)(=O)N1CCC(c2ccc(-c3cc4nccnc4c(O[C@@H]4CCCOC4)n3)cc2)CC1 [Compound 180]
115 | CC(=O)N1CCO[C@H](COc2nc(-c3ccc(C4(C#N)CCC4)cc3)cc3nccnc23)C1 [Compound 289]
